From patent publication US8912169B2, “Beta-lactamase inhibitors” (VenatoRx Pharmaceuticals, Inc., priority 2012, dated 2014)
Where two headings read alike, the source gives them in different places.

Columns and labels:
Assay type in all cases: biochemical
SHV-5 = biological target: T1, SHV-5 (Klebsiella pneumoniae, UniProt P0A3M1); assay: β-lactamase enzyme inhibition, SHV-5
T1 construct: made in house; host or cells: E. coli BL21(DE3)
Method: (§1) For SHV-5, Kpc-2, p99AmpC and OXA-1 β-lactamases, E. coli BL21(DE3) bacterial cells carrying expression plasmids (expressed as native untagged proteins) for the individual β-lactamases were grown in 1 L of Superbroth (Teknova Inc. Hollister, Calif.) supplemented with 100 μg/mlkanamycin selection and 1×5052 (0.5% glycerol, 0.05% glucose and 0.2% α-lactose) at 35° C. for 18-20 hours. Cells were harvested by centrifugation (4,000×g, 4° C., 20 min), resuspended in 50 ml of 10 mM HEPES pH 7.5 ( 1/20 of the initial volume). The cells were lysed by sonication (5 pulses of 45 seconds) at 45 W on ice. The lysates were clarified by centrifugation at 10,000×g for 40 minutes at 4° C. Samples were diluted 5-fold in 50 mM sodium acetate pH 5.0, stored overnight at 4° C., after which they were centrifuged at 10,000×g for 30 minutes to clarify, and filtered through 0.45 μm filters. The samples were loaded onto a 5 ml Capto S sepharose cation exchange column (GE Healthcare) pre-equilibrated with 50 mM sodium acetate pH 5.0. The column was washed with 5 column volumes of 50 mM sodium acetate pH 5.0 to wash out unbound protein and a linear gradient of NaCl (0 to 500 mM) was used to elute the protein (over 16 CV) from the column. Fractions were assayed for β-lactamase activity using Centa (Calbiochem, Gibbstown, N.J.) or Nitrocefin (EMD Millipore chemicals, Darmstadt, Germany) as a reporter β-lactamase substrate for activity in the isolated fractions. Active fractions were pooled, concentrated and further purified by gel filtration chromatography on a Superdex 75 prep grade gel filtration column (GE Healthcare, Piscataway, N.J.) pre-equilibrated in 50 mM Hepes pH 7.5, 150 mM NaCl. Active fractions were pooled concentrated, quantitated by BCA protein determination (Thermo Scientific, Rockford, Ill.), dialyzed into PBS and frozen at −80° C. in 20% glycerol until use.
(§2) An equal volume of diluted enzyme stock was added, and the plates were incubated at 37° C. for 15 min. Nitrocefin was used as substrate for p99 AmpC, VIM-2 and OXA-1 and dispensed into each well at a final concentration of 100 μM. Absorbance at 486 nm was immediately monitored for 10 min using a Biotek Powerwave XS2 microplate spectrophotometer using the GENS software package (Biotek Instruments, Winooski Vt.). In an analogous fashion, imipenem was used as substrate for Kpc-2 and Cefotaxime was used for SHV-5, while changes in absorbance upon hydrolysis of the β-lactam ring were monitored at 300 nm and 260 nm respectively in UV-transparent 96-well microtiter assay plates. Maximum rates of hydrolysis were compared to those in control wells (without inhibitors), and percentages of enzyme inhibition were calculated for each concentration of inhibitor. The concentration of inhibitor needed to reduce the initial rate of hydrolysis of substrate by 50% (IC50) was calculated as the residual activity of β-lactamase at 486 nm using GraFit version 7 kinetics software package (Erithacus Software, Surrey, UK).
(§3) Using the methodology described above, examples of the current invention were evaluated for their ability to inhibit β-lactamase enzymes from all four Ambler classifications (A through D). […] NT=Not tested.

KPC-2 = biological target: T2, KPC-2 (Klebsiella pneumoniae, UniProt Q9F663); assay: β-lactamase enzyme inhibition, KPC-2; settings: substrate imipenem, 300 nm; read-out: Class A KPC-2 IC50
T2 construct: made in house; host or cells: E. coli BL21(DE3)
Method: as §1, §2, §3

p99 AmpC = biological target: T3, p99 AmpC (Enterobacter cloacae, UniProt P05364); assay: β-lactamase enzyme inhibition, p99 AmpC
T3 construct: made in house; host or cells: E. coli BL21(DE3)
Method: as §1, §2, §3

VIM-2 = biological target: T4, VIM-2 (Escherichia coli, UniProt Q5U7L7); assay: β-lactamase enzyme inhibition, VIM-2; settings: substrate Nitrocefin 100 μM, 486 nm; read-out: Class B VIM-2 IC50
T4 construct: made in house; host or cells: E. coli BL21(DE3)
Method: For Vim-2 metallo β-lactamase, the procedure was identical with the following exceptions, first the protein was not pH adjusted to pH 5 with 50 mM sodium acetate, second, the chromatography step was changed to a 5 ml Q sepharose anion exchange column pre-equilibrated with 50 mM Hepes pH 7.5, and elution of the protein was achieved by a linear gradient of NaCl (0-600 mM). Finally, the VIM-2 purification required a second run (3rd step) on the Q sepharose anion exchange column to achieve acceptable purity (>90%).
as §2, §3

OXA-1 = biological target: T5, OXA-1 (Escherichia coli, UniProt P13661); assay: β-lactamase enzyme inhibition, OXA-1; settings: substrate Nitrocefin 100 μM, 486 nm; read-out: Class D OXA-1 IC50
T5 construct: made in house; host or cells: E. coli BL21(DE3)
Method: as §1, §2, §3

[1] = read-out: Class A SHV-5 IC50, substrate Cefotaxime, 260 nm

Row | Structure (SMILES) | IC50 (SHV-5) [nM] | IC50 (KPC-2) [nM] | IC50 (p99 AmpC) [nM] | IC50 (VIM-2) [nM] | IC50 (OXA-1) [nM] | IC50 (SHV-5; [1]) [nM]
1 | NC[C@H]1CC[C@H](C(=O)N[C@H]2Cc3cccc(C(=O)O)c3OB2O)CC1 [Example 1, (R)-3-(trans-4-(aminomethyl)cyclohexanecarboxamido)-2-hydroxy-3,4-dihydro-2H-benzo[e][1,2]oxaborinine-8-carboxylic acid] | 1000 to 10000 | 100 to 1000 | < 100 | 100 to 1000 | < 100 | 
2 | N[C@H]1CC[C@H](C(=O)N[C@H]2Cc3cccc(C(=O)O)c3OB2O)CC1 [Example 2, (R)-3-(trans-4-aminocyclohexanecarboxamido)-2-hydroxy-3,4-dihydro-2H-benzo[e][1,2]oxaborinine-8-carboxylic acid] | 10000 to 100000 | 100 to 1000 | < 100 | 100 to 1000 | 100 to 1000 | 
3 | NC[C@H]1CC[C@H](CC(=O)N[C@H]2Cc3cccc(C(=O)O)c3OB2O)CC1 [Example 3] | < 100 | 100 to 1000 | < 100 | 1000 to 10000 | < 100 | 
4 | N=C(N)NC[C@H]1CC[C@H](CC(=O)N[C@H]2Cc3cccc(C(=O)O)c3OB2O)CC1 [Example 4, (R)-3-(2-(trans-4-(guanidinomethyl)cyclohexyl)acetamido)-2-hydroxy-3,4-dihydro-2H-benzo[e][1,2]oxaborinine-8-carboxylic acid] | < 100 | < 100 | < 100 | 100 to 1000 | < 100 | 
5 | CN(C)CC(=O)NC[C@H]1CC[C@H](CC(=O)N[C@H]2Cc3cccc(C(=O)O)c3OB2O)CC1 [Example 5, (R)-3-(2-(trans-4-((2-(dimethylamino)acetamido)methyl)cyclohexyl)acetamido)-2-hydroxy-3,4-dihydro-2H-benzo[e][1,2]oxaborinine-8-carboxylic acid] | < 100 | < 100 | < 100 | 1000 to 10000 | < 100 | 
6 | N[C@H]1CC[C@H](CC(=O)N[C@H]2Cc3cccc(C(=O)O)c3OB2O)CC1 [Example 6, (R)-3-(2-(trans-4-aminocyclohexyl)acetamido)-2-hydroxy-3,4-dihydro-2H-benzo[e][1,2]oxaborinine-8-carboxylic acid] | < 100 | < 100 | < 100 | 100 to 1000 | < 100 | 
7 | N[C@H]1CC[C@@H](CC(=O)N[C@H]2Cc3cccc(C(=O)O)c3OB2O)CC1 [Example 7, (R)-3-(2-(cis-4-aminocyclohexyl)acetamido)-2-hydroxy-3,4-dihydro-2H-benzo[e][1,2]oxaborinine-8-carboxylic acid] | < 100 | < 100 | < 100 | 1000 to 10000 | 100 to 1000 | 
8 | CN(C)C[C@H]1CC[C@H](CC(=O)N(C)[C@H]2Cc3cccc(C(=O)O)c3OB2O)CC1 [Example 8, (R)-3-(2-(trans-4-((dimethylamino)methyl)cyclohexyl)-N-methylacetamido)-2-hydroxy-3,4-dihydro-2H-benzo[e][1,2]oxaborinine-8-carboxylic acid] | < 100 | < 100 | < 100 | 1000 to 10000 | 100 to 1000 | 
9 | N=C(N)N[C@H]1CC[C@H](CC(=O)N[C@H]2Cc3cccc(C(=O)O)c3OB2O)CC1 [Example 9, (R)-3-(2-(trans-4-guanidinocyclohexyl)acetamido)-2-hydroxy-3,4-dihydro-2H-benzo[e][1,2]oxaborinine-8-carboxylic acid] | < 100 | < 100 | < 100 | 100 to 1000 | < 100 | 
10 | NCCNC[C@H]1CC[C@H](CC(=O)N[C@H]2Cc3cccc(C(=O)O)c3OB2O)CC1 [Example 10, (R)-3-(2-(trans-4-((2-aminoethylamino)methyl)cyclohexyl)acetamido)-2-hydroxy-3,4-dihydro-2H-benzo[e][1,2]oxaborinine-8-carboxylic acid] | < 100 | < 100 | < 100 | 100 to 1000 | 100 to 1000 | 
11 | NCC1CCC(=CC(=O)N[C@H]2Cc3cccc(C(=O)O)c3OB2O)CC1 (stereo partly drawn) [Example 11, (3R)-3-(2-(4-(aminomethyl)cyclohexylidene)acetamido)-2-hydroxy-3,4-dihydro-2H-benzo[e][1,2]oxaborinine-8-carboxylic acid] | 100 to 1000 | 1000 to 10000 | < 100 | 1000 to 10000 | 100 to 1000 | 
12 | NCC1CCC(CC(=O)N[C@H]2Cc3cccc(C(=O)O)c3OB2O)(C[N+](=O)[O-])CC1 (stereo partly drawn) [Example 12, (R)-3-(2-(4-(aminomethyl)-1-(nitromethyl)cyclohexyl)acetamido)-2-hydroxy-3,4-dihydro-2H-benzo[e][1,2]oxaborinine-8-carboxylic acid] | 100 to 1000 | 100 to 1000 | < 100 | 1000 to 10000 | 100 to 1000 | 
13 | NC[C@H](N)C(=O)N[C@H]1CC[C@H](CC(=O)N[C@H]2Cc3cccc(C(=O)O)c3OB2O)CC1 [Example 13, (R)-3-(2-(trans-4-((S)-2,3-diaminopropanamido)cyclohexyl)acetamido)-2-hydroxy-3,4-dihydro-2H-benzo[e][1,2]oxaborinine-8-carboxylic acid] | < 100 | < 100 | < 100 | 100 to 1000 | < 100 | 
14 | N=C(N)N1CCN([C@H]2CC[C@H](CC(=O)N[C@H]3Cc4cccc(C(=O)O)c4OB3O)CC2)CC1 [Example 24, (R)-3-(2-(trans-4-(4-carbamimidoylpiperazin-1-yl)cyclohexyl)acetamido)-2-hydroxy-3,4-dihydro-2H-benzo[e][1,2]oxaborinine-8-carboxylic acid] |  | < 100 |  | 1000 to 10000 | < 100 | < 100
15 | NC1CN(C2CCC(CC(=O)N[C@H]3Cc4cccc(C(=O)O)c4OB3O)CC2)C1 (stereo partly drawn) [Example 35, (3R)-3-(2-(4-(3-aminoazetidin-1-yl)cyclohexyl)acetamido)-2-hydroxy-3,4-dihydro-2H-benzo[e][1,2]oxaborinine-8-carboxylic acid] |  | < 100 |  | 100 to 1000 | < 100 | < 100
16 | O=C(CC1CCC(NC2CNC2)CC1)N[C@H]1Cc2cccc(C(=O)O)c2OB1O (stereo partly drawn) [Example 36, (3R)-3-(2-(4-(azetidin-3-ylamino)cyclohexyl)acetamido)-2-hydroxy-3,4-dihydro-2H-benzo[e][1,2]oxaborinine-8-carboxylic acid] |  | < 100 |  | 1000 to 10000 | < 100 | < 100
17 | N=C(N)NC1CN(C2CCC(CC(=O)N[C@H]3Cc4cccc(C(=O)O)c4OB3O)CC2)C1 (stereo partly drawn) [Example 41, (3R)-3-(2-(4-(3-guanidinoazetidin-1-yl)cyclohexyl)acetamido)-2-hydroxy-3,4-dihydro-2H-benzo[e][1,2]oxaborinine-8-carboxylic acid] |  | < 100 |  | 100 to 1000 | < 100 | < 100
18 | O=C(CC1CCC(O)CC1)N[C@H]1Cc2cccc(C(=O)O)c2OB1O (stereo partly drawn) [Example 47, (3R)-2-hydroxy-3-(2-(4-hydroxycyclohexyl)acetamido)-3,4-dihydro-2H-benzo[e][1,2]oxaborinine-8-carboxylic acid] |  | < 100 |  | 1000 to 10000 | < 100 | < 100
